Data from patent US10519106B2, “Urea derivative and use therefor” (Toray Industries, Inc., priority 2015, dated 2019).
Where a name gives a salt, the structure may show the parent alone.

Molecular target: T1, intracellular domain of DDR1 (Homo sapiens, UniProt Q08345)
T1 construct: the intracellular domain of DDR1 (in a final concentration of 5 ng/μL) (Carna Biosciences, Inc.); purchased Carna Biosciences, Inc
Assay: Evaluation of DDR1 inhibition activity with HTRF KinEASE-TK kit
Format: biochemical
Conditions: intracellular domain of DDR1 5 ng/μL, ATP 25 mol/L (so in the source), TK Substrate-biotin 1000 nmol/L, room temperature, one hour
Description: The DDR1 inhibition activity of the compounds of Examples 1 to 51 was evaluated with HTRF® KinEASE-TK kit (Cisbio Bioassays).
Each test substance was dissolved in dimethyl sulfoxide (hereinafter referred to as DMSO) and then used for the evaluation as described below. Moreover, each of test substances and reagents was diluted in the kinase buffer (Cisbio Bioassays) prepared by adding thereto MgCl2, MnCl2, DTT, and the Supplemental Enzyme buffer (Cisbio Bioassays) to concentrations of 5 mmol/L, 0.5 mmol/L, 0.25 mmol/L, and 50 nmol/L, respectively, and then used. Each test substance (in DMSO in a final concentration of 1%), the intracellular domain of DDR1 (in a final concentration of 5 ng/μL) (Carna Biosciences, Inc.), the phosphate donor ATP (in final concentration of 25 mol/L) (Sigma), and the substrate TK Substrate-biotin (in a final concentration of 1000 nmol/L) (Cisbio Bioassays) were added to a 384-well black plate (Corning) and allowed to react at room temperature for one hour. After completion of the reaction, the TK Antibody-Cryptate (Cisbio Bioassays) and the Streptavidin-XL665 (Cisbio Bioassays) were added thereto and allowed to react at room temperature for one hour. In addition, the plate was provided with a well to which a test substance was not added, and with a well to which the intracellular domain of DDR1 and a test substance were not added.
The fluorescence intensity in each well was measured using a multi-label counter (Envision, PerkinElmer; excitation wavelength: 320 nm, measurement wavelength: 665 nm and 620 nm) to calculate a Ratio (the fluorescence intensity at 665 nm/the fluorescence intensity at 620 nm). The inhibition rate (%) of a test substance at each concentration was calculated based on the formula below. Inhibition rate (%)=([the Ratio obtained from the well containing no test substance]−[the Ratio from a well containing a test substance])/([the Ratio obtained from the well containing no test substance]−[the Ratio obtained from the well containing no intracellular domain of DDR1 and no test substance])×100
The calculated inhibition rates were fitted to a sigmoidal dose-response curve by regression analysis using the Prism 5.04 (GraphPad Software, Inc.) to calculate the ICso0 value of the test substance.

T1 sequence (Q08345 444-876 isoform Q08345-2 limits assumed): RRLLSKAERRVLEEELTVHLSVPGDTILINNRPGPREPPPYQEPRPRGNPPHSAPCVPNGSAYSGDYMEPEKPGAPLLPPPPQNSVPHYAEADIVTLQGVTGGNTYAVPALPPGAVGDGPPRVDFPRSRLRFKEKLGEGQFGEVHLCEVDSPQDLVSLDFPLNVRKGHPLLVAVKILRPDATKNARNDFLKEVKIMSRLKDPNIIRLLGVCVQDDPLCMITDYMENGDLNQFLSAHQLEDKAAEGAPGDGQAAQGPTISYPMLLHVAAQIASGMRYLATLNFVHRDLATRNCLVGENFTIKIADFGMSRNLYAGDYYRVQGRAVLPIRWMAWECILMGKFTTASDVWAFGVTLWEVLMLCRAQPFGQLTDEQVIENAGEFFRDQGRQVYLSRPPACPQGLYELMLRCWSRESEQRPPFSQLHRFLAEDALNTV

SMILES	IC50
COc1ccc(S(F)(F)(F)(F)F)cc1NC(=O)NCc1ccccc1OCc1ccncc1 [Compound of Example 1]	52.1 nM
COc1ccc(OC(F)(F)F)cc1NC(=O)NCc1ccccc1OCc1cccnc1 [Compound of Example 3]	838 nM
COc1ccc(OC(F)(F)F)cc1NC(=O)NCc1ccccc1OCc1ccncc1 [Compound of Example 4]	51.7 nM
COc1ccc(OC(F)(F)F)cc1NC(=O)NCc1ccccc1OCc1ccnc(C(N)=O)c1 [Compound of Example 5, 4-((2-((3-(2-methoxy-5-(trifluoromethoxy)phenyl)ureido)methyl)phenoxy)methyl)picolinamide]	47 nM
COC(=O)c1ccc(COc2ccccc2CNC(=O)Nc2cc(OC(F)(F)F)ccc2OC)cc1 [Compound of Example 7, methyl 4-((2-((3-(2-methoxy-5-(trifluoromethoxy)phenyl)ureido)methyl)phenoxy)methyl)benzoate]	585 nM
COc1ccc(OC(F)(F)F)cc1NC(=O)NCc1ccccc1OCc1ccc(C(=O)O)cc1 [Compound of Example 8, 4-((2-((3-(2-methoxy-5-(trifluoromethoxy)phenyl)ureido)methyl)phenoxy)methyl)benzoic acid]	172 nM
COc1ccc(OC(F)(F)F)cc1NC(=O)NCc1ccccc1OCc1cccc(C(=O)O)c1 [Compound of Example 9, 3-((2-((3-(2-methoxy-5-(trifluoromethoxy)phenyl)ureido)methyl)phenoxy)methyl)benzoic acid]	137 nM
COC(=O)c1ccc(COc2ccccc2CNC(=O)Nc2cc(C(F)(F)F)cc(CO)c2OC)cc1 [Compound of Example 10, methyl 4-((2-((3-(3-(hydroxymethyl)-2-methoxy-5-(trifluoromethyl)phenyl)ureido)methyl)phenoxy)methyl)benzoate]	156 nM
COc1c(CO)cc(C(F)(F)F)cc1NC(=O)NCc1ccccc1OCc1ccc(C(=O)O)cc1 [Compound of Example 11, 4-((2-((3-(3-(hydroxymethyl)-2-methoxy-5-(trifluoromethyl)phenyl)ureido)methyl)phenoxy)methyl)benzoic acid]	150 nM
COc1ccc(OC(F)(F)F)cc1NC(=O)NCc1ccccc1OCc1ccc(C(N)=O)cc1 [Compound of Example 12, 4-((2-((3-(2-methoxy-5-(trifluoromethoxy)phenyl)ureido)methyl)phenoxy)methyl)benzamide]	38.6 nM
CNC(=O)c1ccc(COc2ccccc2CNC(=O)Nc2cc(OC(F)(F)F)ccc2OC)cc1 [Compound of Example 13, 4-((2-((3-(2-methoxy-5-(trifluoromethoxy)phenyl)ureido)methyl)phenoxy)methyl)-N-methylbenzamide]	96.4 nM
COc1ccc(OC(F)(F)F)cc1NC(=O)NCc1ccccc1OCc1ccc(C(=O)N(C)C)cc1 [Compound of Example 14, 4-((2-((3-(2-methoxy-5-(trifluoromethoxy)phenyl)ureido)methyl)phenoxy)methyl)-N,N-dimethylbenzamide]	156 nM
CCN(CC)CCNC(=O)c1ccc(COc2ccccc2CNC(=O)Nc2cc(OC(F)(F)F)ccc2OC)cc1 [Compound of Example 15, N-(2-(diethylamino)ethyl)-4-((2-((3-(2-methoxy-5-(trifluoromethoxy)phenyl)ureido)methyl)phenoxy)methyl)benzamide]	308 nM
COc1ccc(OC(F)(F)F)cc1NC(=O)NCc1ccccc1OCc1ccc(C(=O)NCCN(C)C)cc1 [Compound of Example 16, N-(2-(dimethylamino)ethyl)-4-((2-((3-(2-methoxy-5-(trifluoromethoxy)phenyl)ureido)methyl)phenoxy)methyl)benzamide]	163 nM
CNCCNC(=O)c1ccc(COc2ccccc2CNC(=O)Nc2cc(OC(F)(F)F)ccc2OC)cc1 [Compound of Example 17, 4-((2-((3-(2-methoxy-5-(trifluoromethoxy)phenyl)ureido)methyl)phenoxy)methyl)-N-(2-(methylamino)ethyl)benzamide]	185 nM
COc1ccc(C(F)(F)F)cc1NC(=O)NCc1ccccc1OCc1cccc(C(N)=O)c1 [Compound of Example 21, 3-((2-((3-(2-methoxy-5-(trifluoromethyl)phenyl)ureido)methyl)phenoxy)methyl)benzamide]	67.4 nM
COc1ccc(S(F)(F)(F)(F)F)cc1NC(=O)NCc1ccccc1Oc1ccncc1 [Compound of Example 23, 1-(2-methoxy-5-(pentafluorosulfanyl)phenyl)-3-(2-(pyridin-4-yloxy)benzyl)urea hydrochloride]	78.7 nM
COc1ccc(S(F)(F)(F)(F)F)cc1NC(=O)NCc1ccccc1Oc1ccnc(-n2ccnc2)n1 [Compound of Example 24, 1-(2-((2-(1H-imidazol-1-yl)pyrimidin-4-yl)oxy)benzyl)-3-(2-methoxy-5-(pentafluorosulfanyl)phenyl)urea]	42.2 nM
COC(=O)c1ccc(Oc2ccccc2CNC(=O)Nc2cc(OC(F)(F)F)ccc2OC)cc1 [Compound of Example 25]	194 nM

Continued by falling IC50, values first:

IC50	SMILES
38.3 nM	COc1ccc(OC(F)(F)F)cc1NC(=O)NCc1ccccc1Oc1ccc(C(=O)O)cc1 [Compound of Example 26]
37.4 nM	NC(=O)c1ccc(COc2ccccc2CNC(=O)Nc2cccc(C(F)(F)F)c2)cc1 [Compound of Example 19, 4-((2-((3-(3-(trifluoromethyl)phenyl)ureido)methyl)phenoxy)methyl)benzamide]
32.5 nM	COc1ccc(C(F)(F)F)cc1NC(=O)NCc1cccc(OCc2cccnc2)c1 [Compound of Example 6]
28.5 nM	COc1c(CO)cc(C(F)(F)F)cc1NC(=O)NCc1ccccc1OCc1cccc(C(N)=O)c1 [Compound of Example 22]
26.1 nM	COc1c(CO)cc(S(F)(F)(F)(F)F)cc1NC(=O)NCc1ccccc1OCc1ccncc1 [Compound of Example 2]
23.3 nM	COc1ccc(C(F)(F)F)cc1NC(=O)NCc1ccccc1OCc1ccc(C(N)=O)cc1 [Compound of Example 18, 4-((2-((3-(2-methoxy-5-(trifluoromethyl)phenyl)ureido)methyl)phenoxy)methyl)benzamide]
22 nM	NC(=O)c1ccc(Oc2ccccc2CNC(=O)Nc2cc(OC(F)(F)F)ccc2OC2COC2)cc1 [Compound of Example 34, 4-(2-((3-(2-(oxetan-3-yloxy)-5-(trifluoromethoxy)phenyl)ureido)methyl)phenoxy)benzamide]
21 nM	COc1ccc(OC(F)(F)F)cc1NC(=O)NCc1ccccc1Oc1ccc(C(N)=O)cc1 [Compound of Example 27]
17.3 nM	NC(=O)c1ccc(Oc2ccccc2CNC(=O)Nc2cccc(C(F)(F)F)c2)cc1 [Compound of Example 32]
14.5 nM	COc1c(CO)cc(C(F)(F)F)cc1NC(=O)NCc1ccccc1Oc1ccc(C(=O)O)cc1 [Compound of Example 28]
13.5 nM	COc1c(CO)cc(C(F)(F)F)cc1NC(=O)NCc1ccccc1OCc1ccc(C(N)=O)cc1 [Compound of Example 20, 4-((2-((3-(3-(hydroxymethyl)-2-methoxy-5-(trifluoromethyl)phenyl)ureido)methyl)phenoxy)methyl)benzamide]
13.2 nM	NC(=O)c1ccc(Oc2ccccc2CNC(=O)Nc2ccc(CO)c(C(F)(F)F)c2)cc1 [Compound of Example 36, 4-(2-((3-(4-(hydroxymethyl)-5-(trifluoromethyl)phenyl)ureido)methyl)phenoxy)benzamide]
12.9 nM	NC(=O)c1ccc(Oc2ccccc2CNC(=O)Nc2cc(C(F)(F)F)ccc2OC2COC2)cc1 [Compound of Example 33, 4-(2-((3-(2-(oxetan-3-yloxy)-5-(trifluoromethyl)phenyl)ureido)methyl)phenoxy)benzamide]
12.9 nM	NC(=O)c1ccc(Oc2ccccc2CNC(=O)Nc2cc(CO)cc(C(F)(F)F)c2)cc1 [Compound of Example 35]
12.4 nM	COc1ccc(C(F)(F)F)cc1NC(=O)NCc1ccccc1Oc1ccc(C(=O)O)cc1 [Compound of Example 30]
11.7 nM	CN1CCN(Cc2cc(NC(=O)NCc3ccccc3Oc3ccc(C(N)=O)cc3)cc(C(F)(F)F)c2)CC1 [Compound of Example 37, 4-(2-((3-(3-((4-methylpiperazin-1-yl)methyl)-5-(trifluoromethyl)phenyl)ureido)methyl)phenoxy)benzamide]
11 nM	COc1ccc(C(F)(F)F)cc1NC(=O)NCc1ccccc1Oc1ccc(C(N)=O)cc1 [Compound of Example 31]
5.98 nM	COc1c(CO)cc(C(F)(F)F)cc1NC(=O)NCc1ccccc1Oc1ccc(C(N)=O)cc1 [Compound of Example 29]
